What was measured:
stratum corneum samples = experiment: In vitro stratum corneum comparison of ΔT using differential scanning calorimetry (lipid disorganization); details: DSC 20° C. to 120° C. at 5° C./min; 0.1 g/sample on SC surface for 15 min in 75% RH
Protocol: In Vitro Stratum Corneum Comparison of ΔT using differential scanning calorimetry (DSC) to characterize the stability of a protein or other biomolecule directly in its native form. It does this by measuring the heat change associated with the molecule's thermal denaturation when heated at a constant rate.
Studies were conducted with each of the exemplified inventive and comparative compositions, to evaluate effect of the compositions on the stratum corneum. Inventive 1 and Inventive 2 compositions and the Comparative composition together with Jessner peel, glycolic acid alone and isopropyl myristate controls were evaluated on SC samples according to the following procedure. Stratum corneum samples were equilibrated at 75% RH overnight. Inventive and Comparative Compositions and control treatments applied on SC surface (0.1 g/sample) for 15 min in 75% RH. The SC surface was wiped clean and rinsed with DI water. Allow to dry in 75% RH overnight. The DSC profile was measured from 20° C. to 120° C. at 5° C./min.

forearm skin = experiment: In vivo tape stripping, protein removed, Micro BCA assay (efficacy of desquamation); set-up: species or system human; details: tape stripping of forearm after 15 min treatment; 4 tape strippings per region, average of 3 regions, single person
Protocol: Example 5: In Vivo Tape Stripping Protein Removed Using a Micro […] Assay to Characterize the Efficacy of Desquamation
Studies were conducted with each of the exemplified inventive and comparative compositions, to evaluate effect of the compositions on live skin tape stripping samples. Inventive 1 and Inventive 2 compositions and the Comparative composition together with Jessner peel, glycolic acid alone and isopropyl myristate controls were evaluated according to the following procedure. Tape strips of skin areas tested with each composition were obtained, with 4 tape strippings per region; Average of 3 regions; Experiment done on single person rinse the forearm with distilled water and dry it for 3 minutes; Wipe with the peel test composition saturated cotton pads on the designated area and dry it for 15 min; Rinse the forearm with the water and dry the moisture by placing a tissue and patting the tissue. Air dry it for 3 min; Perform the tape stripping—(1) put the tape on, (2) place the metal plate on top of the tape, and (3) put weight (2 kg) for 5 seconds.—3 tapes (3 different regions of the skin)/peel test composition×4 tape stripping; Each tape (1.4 cm) was inserted in a 2 mL Eppendorf tube and 500 uL of PBS was added to each tube; Shaking condition ([…]) for 2 hours @ room temperature; Sonication for 20 min in ice water; Micro BCA assay.

[1] = acute oral toxicity, mutagenicity, skin irritation, skin sensitization, phototoxicity; cited from earlier work

CCCCCCCCCCCCCC(=O)OC(C)C [Isopropyl myristate control, isopropyl myristate]
ΔT (measurement of lipid disorganization) (stratum corneum samples): 6.40 ± 0.1
Protein Content (protein removed) (forearm skin): 2.4 ± 0.88 μg/cm^2

CC(c1ccccc1)c1ccc(O)cc1O (centres unmarked) [Phenylethyl resorcinol]
adverse effects in basic toxicological tests [1]: not shown adverse effects

O=C(O)CO [Glycolic Acid Control, glycolic acid]
ΔT (measurement of lipid disorganization) (stratum corneum samples): 5.94 ± 0.41
Protein Content (protein removed) (forearm skin): 1.65 ± 0.02 μg/cm^2

From US11389382B2, “Biphase chemical peel” (L'OREAL, priority 2019, dated 2022)
